Key:
Settings in all cases: binder
[1] = target: GPRK5 (Homo sapiens, UniProt P34947)
[2] = target: GSK3B (Homo sapiens, UniProt P49841)
[3] = target: DYRK1A (Homo sapiens, UniProt Q13627)
[4] = target: T1, MST2 (Homo sapiens, UniProt Q13188)
T1 sequence (Q13188 1-491): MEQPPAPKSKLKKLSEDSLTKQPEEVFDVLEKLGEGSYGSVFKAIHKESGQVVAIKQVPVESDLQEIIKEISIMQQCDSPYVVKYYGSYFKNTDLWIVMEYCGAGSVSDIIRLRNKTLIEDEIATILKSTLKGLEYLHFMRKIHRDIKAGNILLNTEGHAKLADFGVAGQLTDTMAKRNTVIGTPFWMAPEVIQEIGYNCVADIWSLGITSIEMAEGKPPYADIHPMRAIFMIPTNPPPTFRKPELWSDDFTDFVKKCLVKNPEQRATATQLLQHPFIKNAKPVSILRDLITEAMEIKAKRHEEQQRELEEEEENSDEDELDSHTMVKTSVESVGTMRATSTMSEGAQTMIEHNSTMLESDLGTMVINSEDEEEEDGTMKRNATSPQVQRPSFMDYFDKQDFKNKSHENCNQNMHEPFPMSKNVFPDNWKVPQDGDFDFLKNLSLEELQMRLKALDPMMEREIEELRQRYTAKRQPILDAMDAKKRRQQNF

[5] = target: T2, DRAK2 (Homo sapiens, UniProt O94768)
T2 sequence (O94768 1-372): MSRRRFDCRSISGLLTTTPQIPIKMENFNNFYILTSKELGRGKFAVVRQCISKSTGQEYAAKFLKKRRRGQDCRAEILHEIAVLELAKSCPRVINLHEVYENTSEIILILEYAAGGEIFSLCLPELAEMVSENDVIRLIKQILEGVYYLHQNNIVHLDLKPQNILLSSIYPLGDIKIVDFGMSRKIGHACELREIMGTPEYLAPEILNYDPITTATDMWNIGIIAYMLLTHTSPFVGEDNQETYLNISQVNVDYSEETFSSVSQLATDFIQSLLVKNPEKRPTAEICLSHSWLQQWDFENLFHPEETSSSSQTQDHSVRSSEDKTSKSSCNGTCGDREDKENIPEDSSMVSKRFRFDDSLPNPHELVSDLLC

[6] = target: T3, MARK4 (Homo sapiens, UniProt Q96L34)
T3 sequence (Q96L34 1-752): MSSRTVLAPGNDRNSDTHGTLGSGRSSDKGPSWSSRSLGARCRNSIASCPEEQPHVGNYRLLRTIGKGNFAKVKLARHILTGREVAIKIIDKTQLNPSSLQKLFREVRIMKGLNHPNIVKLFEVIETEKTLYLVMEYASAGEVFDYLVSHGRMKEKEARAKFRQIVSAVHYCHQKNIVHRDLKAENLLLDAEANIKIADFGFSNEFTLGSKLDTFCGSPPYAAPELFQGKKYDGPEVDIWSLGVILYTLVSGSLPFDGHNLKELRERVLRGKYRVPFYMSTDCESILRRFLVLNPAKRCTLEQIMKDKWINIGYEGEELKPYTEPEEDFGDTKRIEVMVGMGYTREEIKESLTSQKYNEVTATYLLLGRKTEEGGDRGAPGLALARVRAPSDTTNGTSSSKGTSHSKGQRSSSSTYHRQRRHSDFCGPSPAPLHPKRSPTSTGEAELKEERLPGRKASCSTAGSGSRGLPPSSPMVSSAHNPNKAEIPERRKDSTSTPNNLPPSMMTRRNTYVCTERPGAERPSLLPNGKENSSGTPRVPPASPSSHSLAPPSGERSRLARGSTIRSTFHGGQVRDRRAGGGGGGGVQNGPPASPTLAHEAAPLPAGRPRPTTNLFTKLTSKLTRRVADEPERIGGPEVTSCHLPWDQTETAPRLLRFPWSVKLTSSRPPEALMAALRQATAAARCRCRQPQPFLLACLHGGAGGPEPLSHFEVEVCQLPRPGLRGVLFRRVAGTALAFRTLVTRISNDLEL

[7] = target: T4, MER (Homo sapiens, UniProt Q12866)
T4 sequence (Q12866 1-999): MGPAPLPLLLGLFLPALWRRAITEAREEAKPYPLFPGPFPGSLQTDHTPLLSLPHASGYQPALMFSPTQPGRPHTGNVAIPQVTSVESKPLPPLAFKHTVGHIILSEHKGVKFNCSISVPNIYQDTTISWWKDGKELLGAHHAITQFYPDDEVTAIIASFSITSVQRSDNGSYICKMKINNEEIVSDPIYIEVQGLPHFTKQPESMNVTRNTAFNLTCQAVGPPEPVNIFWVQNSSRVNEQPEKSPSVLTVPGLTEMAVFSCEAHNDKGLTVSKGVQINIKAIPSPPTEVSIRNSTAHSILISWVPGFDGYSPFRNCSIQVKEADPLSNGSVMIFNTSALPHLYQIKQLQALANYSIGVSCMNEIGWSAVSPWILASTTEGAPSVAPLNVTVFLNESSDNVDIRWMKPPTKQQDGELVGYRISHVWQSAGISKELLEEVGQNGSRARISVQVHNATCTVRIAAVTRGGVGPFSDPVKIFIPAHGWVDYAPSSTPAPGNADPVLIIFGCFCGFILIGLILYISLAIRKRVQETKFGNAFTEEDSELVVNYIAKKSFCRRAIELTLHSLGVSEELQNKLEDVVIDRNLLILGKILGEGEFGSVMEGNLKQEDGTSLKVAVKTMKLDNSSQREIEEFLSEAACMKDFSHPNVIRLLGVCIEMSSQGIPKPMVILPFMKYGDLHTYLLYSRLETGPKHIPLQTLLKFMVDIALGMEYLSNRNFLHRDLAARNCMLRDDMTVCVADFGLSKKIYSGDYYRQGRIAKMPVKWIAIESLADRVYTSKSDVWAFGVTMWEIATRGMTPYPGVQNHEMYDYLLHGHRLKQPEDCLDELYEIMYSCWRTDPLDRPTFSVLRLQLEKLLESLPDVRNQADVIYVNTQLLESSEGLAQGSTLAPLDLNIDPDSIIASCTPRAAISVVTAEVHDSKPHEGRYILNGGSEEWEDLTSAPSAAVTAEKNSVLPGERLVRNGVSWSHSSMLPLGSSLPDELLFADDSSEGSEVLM

Sequence of GPRK5 (P34947 whole entry): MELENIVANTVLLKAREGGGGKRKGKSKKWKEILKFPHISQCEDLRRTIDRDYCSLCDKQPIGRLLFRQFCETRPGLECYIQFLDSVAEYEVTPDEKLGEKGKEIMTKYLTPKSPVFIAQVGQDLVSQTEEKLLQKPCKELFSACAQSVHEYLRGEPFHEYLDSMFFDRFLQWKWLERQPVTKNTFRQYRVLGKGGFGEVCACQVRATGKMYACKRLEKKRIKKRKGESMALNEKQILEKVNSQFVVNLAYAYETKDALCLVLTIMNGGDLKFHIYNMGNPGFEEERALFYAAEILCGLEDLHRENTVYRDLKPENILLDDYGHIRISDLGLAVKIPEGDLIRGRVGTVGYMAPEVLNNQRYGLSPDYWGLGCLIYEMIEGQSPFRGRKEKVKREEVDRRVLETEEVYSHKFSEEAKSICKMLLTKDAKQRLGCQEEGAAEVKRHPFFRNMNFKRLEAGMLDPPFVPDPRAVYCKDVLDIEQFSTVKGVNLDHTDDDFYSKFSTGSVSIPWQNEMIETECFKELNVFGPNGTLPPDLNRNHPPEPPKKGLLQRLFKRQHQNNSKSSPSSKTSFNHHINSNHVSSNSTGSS
Sequence of GSK3B (P49841 whole entry): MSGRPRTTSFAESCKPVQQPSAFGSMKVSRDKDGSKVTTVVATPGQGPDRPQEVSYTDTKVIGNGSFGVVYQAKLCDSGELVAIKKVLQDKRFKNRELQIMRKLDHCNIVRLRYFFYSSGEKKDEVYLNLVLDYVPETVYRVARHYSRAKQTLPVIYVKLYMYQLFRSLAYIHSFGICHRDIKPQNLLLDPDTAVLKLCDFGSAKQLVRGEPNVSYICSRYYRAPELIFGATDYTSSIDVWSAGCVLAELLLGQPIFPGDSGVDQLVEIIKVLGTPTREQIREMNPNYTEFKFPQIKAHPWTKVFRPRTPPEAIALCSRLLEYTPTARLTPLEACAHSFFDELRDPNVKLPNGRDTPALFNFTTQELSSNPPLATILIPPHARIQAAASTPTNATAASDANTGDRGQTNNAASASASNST

`Cc1cccc(-c2ccc(-c3cc4cnc(NC(CO)CO)nc4n(CCCCN)c3=O)c(Cl)c2)n1` [compound 24, 8-(4-Aminobutyl)-6-(2-chloro-4-(6-methylpyridin-2-yl)phenyl)-2-((1,3-dihydroxypropan-2-yl)amino)pyrido[2,3-d]pyrimidin-7(8H)-one] was tested, and the “ΔTm MR24 (24)” value [1] was -1.0 °C, the “ΔTm MR24 (24)” value [2] was 0.0 °C and the “ΔTm MR24 (24)” value [3] was 0.1 °C. The “ΔTm MR24 (24)” value [4] was 4.9 °C, the “ΔTm MR24 (24)” value [5] was 2.9 °C and the “ΔTm MR24 (24)” value [6] was 3.3 °C. For the same molecule, the “ΔTm MR24 (24)” value [7] was -0.7 °C.
For `Cc1cccc(-c2ccc(-c3cc4cnc(NCCCc5ccc(N)cc5)nc4n(CCCCN)c3=O)c(Cl)c2)n1` [compound 25, 8-(4-Aminobutyl)-2-((3-(4-aminophenyl)propyl)amino)-6-(2-chloro-4-(6-methylpyridin-2-yl)phenyl)pyrido[2,3-d]pyrimidin-7(8H)-one], the “ΔTm 25” value [1] was 0.6 °C, the “ΔTm 25” value [2] was 3.8 °C and the “ΔTm 25” value [3] was -0.1 °C. The “ΔTm 25” value [4] was 9.4 °C, the “ΔTm 25” value [5] was 7.5 °C and the “ΔTm 25” value [6] was 5.8 °C. For the same molecule, the “ΔTm 25” value [7] was 1.6 °C.
`CNc1ncc2cc(-c3ccc(-c4cccc(C)n4)cc3Cl)c(=O)n(CCC3CCNCC3)c2n1` [compound 22, 6-(2-Chloro-4-(6-methylpyridin-2-yl)phenyl)-2-(methylamino)-8-(2-(piperidin-4-yl)ethyl)pyrido[2,3-d]pyrimidin-7(8H)-one] was tested, and the “ΔTm 22” value [1] was -1.4 °C, the “ΔTm 22” value [2] was 1.3 °C and the “ΔTm 22” value [3] was 0.5 °C. For the same molecule, the “ΔTm 22” value [4] was 8.0 °C, the “ΔTm 22” value [5] was 2.7 °C and the “ΔTm 22” value [6] was 5.8 °C. The “ΔTm 22” value [7] was 2.6 °C.
`CNc1ncc2cc(-c3ccc(-c4cccc(C)n4)cc3Cl)c(=O)n(CCCCN)c2n1` [compound 20, MRLW5] was tested, and the “ΔTm MRLW5 (20)” value [1] was 0.5 °C, the “ΔTm MRLW5 (20)” value [2] was 1.8 °C and the “ΔTm MRLW5 (20)” value [3] was -1.0 °C. For the same molecule, the “ΔTm MRLW5 (20)” value [4] was 7.9 °C, the “ΔTm MRLW5 (20)” value [5] was 0.7 °C and the “ΔTm MRLW5 (20)” value [6] was 8.2 °C. For the same molecule, the “ΔTm MRLW5 (20)” value [7] was 2.5 °C.
`Cc1cccc(-c2ccc(-c3cc4cnc(NCCCN5CCOCC5)nc4n(CCCCN)c3=O)c(Cl)c2)n1` [compound 26, MR26] was tested, and the “ΔTm MR26 (26)” value [1] was -0.5 °C, the “ΔTm MR26 (26)” value [2] was 0.8 °C and the “ΔTm MR26 (26)” value [3] was -0.3 °C. For the same molecule, the “ΔTm MR26 (26)” value [4] was 7.7 °C, the “ΔTm MR26 (26)” value [5] was 5.1 °C and the “ΔTm MR26 (26)” value [6] was 3.7 °C. The “ΔTm MR26 (26)” value [7] was 1.0 °C.
For `CNc1ncc2cc(-c3ccc(-c4cccc(C)n4)cc3Cl)c(=O)n(C[C@H]3CC[C@H](N)CC3)c2n1` [compound 23, 23], the “ΔTm 23” value [1] was 0.3 °C, the “ΔTm 23” value [2] was 1.7 °C and the “ΔTm 23” value [3] was -0.3 °C. The “ΔTm 23” value [4] was 10.8 °C, the “ΔTm 23” value [5] was 1.7 °C and the “ΔTm 23” value [6] was 12.7 °C. The “ΔTm 23” value [7] was 3.1 °C.

Source: doi:10.1101/2023.11.24.568596v1 (biorxiv, 2023)
